pIC50: −log10 of the molar value.

One experiment relates to KMS-12-BM cell lines. Nature of the experiment: KMS12 #2 flow cytometry assay (phospho-BAD Ser112). The class given is cell-based. Particulars: Homo sapiens, 110 min; KMS-12-BM cells, pBAD Ser112 by flow cytometry, 110 min with compound; read-out: KMS-12-Flow IC50 IP.
The target of the next experiment is Pim-2 (Homo sapiens (Human), UniProt Q9P1W9). Nature of the experiment: Pim-Mn enzyme assay (HTRF, 384-well), Pim-2. The class given is biochemical. Particulars: Pim-2 enzyme 0.5 pM, ATP 1.5 μM, BAD (S112) 0.5 μM, HTRF, 22-point curve; read-out: Pim-2-Mn IC50 IP.
The target in a further experiment is Pim-1 (Homo sapiens (Human), UniProt P11309). Nature of the experiment: Pim-Mn enzyme assay (HTRF, 384-well), Pim-1. The note with it: Pim-1 enzyme 5 pM, ATP 1.5 μM, BAD (S112) 0.5 μM, HTRF, 22-point curve; read-out: Pim-1-Mn IC50 IP. It counts as biochemical. Background: TR-FRET usually uses a lanthanide donor and a delayed reading to cut background.
Chain of Pim-1 (P11309 whole entry): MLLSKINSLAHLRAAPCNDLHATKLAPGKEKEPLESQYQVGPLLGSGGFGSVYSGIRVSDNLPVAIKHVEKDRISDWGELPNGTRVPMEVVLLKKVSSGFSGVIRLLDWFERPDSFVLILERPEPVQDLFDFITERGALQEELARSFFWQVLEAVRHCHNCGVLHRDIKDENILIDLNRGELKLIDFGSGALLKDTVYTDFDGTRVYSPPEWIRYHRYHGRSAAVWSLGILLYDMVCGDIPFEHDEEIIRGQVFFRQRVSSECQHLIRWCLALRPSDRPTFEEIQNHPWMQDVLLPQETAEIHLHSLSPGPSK

Chain of Pim-2 (Q9P1W9 whole entry): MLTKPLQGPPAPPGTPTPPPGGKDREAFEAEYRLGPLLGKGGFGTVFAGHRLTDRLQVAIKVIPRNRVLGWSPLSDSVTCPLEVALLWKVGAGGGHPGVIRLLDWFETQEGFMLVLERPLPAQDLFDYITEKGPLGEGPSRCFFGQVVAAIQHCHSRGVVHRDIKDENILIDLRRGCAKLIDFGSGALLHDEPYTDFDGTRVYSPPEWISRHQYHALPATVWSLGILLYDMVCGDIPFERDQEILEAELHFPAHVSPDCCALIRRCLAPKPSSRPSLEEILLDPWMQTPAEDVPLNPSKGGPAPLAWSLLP

As to `Cc1nc2cccc(-c3cc4c([nH]3)C(CO)NC4=O)c2nc1NC(C)(C)C` (racemic) [Example 469, (R)-2-(3-(tert-butylamino)-2-methylquinoxalin-5-yl)-6-(hydroxymethyl)-5,6-dihydropyrrolo[3,4-b]pyrrol-4(1H)-one and (S)-2-(3-(tert-butylamino)-2-methylquinoxalin-5-yl)-6-(hydroxymethyl)-5,6-dihydropyrrolo[3,4-b]pyrrol-4(1H)-one], the pIC50 with KMS-12-BM cell lines is 6.92.
Same read-out and setting: the result for `Cc1nc2cccc(-c3cc4c(n3C)C(CO)NC4=O)c2nc1NC(C)(C)C` (racemic) [Example 470, (R)-2-(3-(tert-butylamino)-2-methylquinoxalin-5-yl)-6-(hydroxymethyl)-1-methyl-5,6-dihydropyrrolo[3,4-b]pyrrol-4(1H)-one and (S)-2-(3-(tert-butylamino)-2-methylquinoxalin-5-yl)-6-(hydroxymethyl)-1-methyl-5,6-dihydropyrrolo[3,4-b]pyrrol-4(1H)-one] reads 5.89; that for `Cc1nc2ccc(F)c(-c3cc4c([nH]3)[C@@H](C)NC4=O)c2nc1NC(C)(C)C` [Example 297, (6R)-2-(3-(tert-butylamino)-6-fluoro-2-methyl-5-quinoxalinyl)-6-methyl-5,6-dihydropyrrolo[3,4-b]pyrrol-4(1H)-one], 7.55; that for `Cc1nc2ccc(F)c(-c3cc4c([nH]3)[C@H](C)NC4=O)c2nc1NC(C)(C)C` [Example 298, (6S)-2-(3-(tert-butylamino)-6-fluoro-2-methyl-5-quinoxalinyl)-6-methyl-5,6-dihydropyrrolo[3,4-b]pyrrol-4(1H)-one], 7.24.
For the compound `Cc1nc2cccc(-c3cc4c([nH]3)CCN/C4=N\O)c2nc1NC(C)(C)C` [Example 300, (E/Z)-2-(3-(tert-butylamino)-2-methylquinoxalin-5-yl)-6,7-dihydro-1H-pyrrolo[3,2-c]pyridin-4(5H)-one oxime], in the experiment with KMS-12-BM cell lines, the pIC50 was less than 5.00.
On the same count and under the same terms, the result for `Cc1nc2cccc(-c3cc4c([nH]3)[C@H](C)NC4=O)c2nc1NC(C)(C)C` [Example 327, (6S)-2-(3-(tert-butylamino)-2-methyl-5-quinoxalinyl)-6-methyl-5,6-dihydropyrrolo[3,4-b]pyrrol-4(1H)-one] reads 7.01; that for `Cc1nc2cccc(-c3cc4c([nH]3)[C@@H](C)NC4=S)c2nc1NC(C)(C)C` [Example 332, (6R)-2-(3-(tert-butylamino)-2-methyl-5-quinoxalinyl)-6-methyl-5,6-dihydropyrrolo[3,4-b]pyrrole-4(1H)-thione], less than 4.40.
As to `Cc1nc2cccc(-c3cc4c([nH]3)CCNC4=O)c2nc1NC(C)(C)CCS(C)(=O)=O` [Example 338, 2-(3-((1,1-dimethyl-3-(methylsulfonyl)propyl)amino)-2-methyl-5-quinoxalinyl)-1,5,6,7-tetrahydro-4H-pyrrolo[3,2-c]pyridin-4-one], the pIC50 with KMS-12-BM cell lines was 4.84.
`CC(C)(C)Nc1ccc2cccc(-c3cc4c([nH]3)CCNC4=O)c2n1` [Example 340, 2-(2-(tert-butylamino)-8-quinolinyl)-1,5,6,7-tetrahydro-4H-pyrrolo[3,2-c]pyridin-4-one]: the pIC50 in the experiment with KMS-12-BM cell lines was 6.23.
As to `Cc1nc2cccc(-c3[nH]c4c(c3Cl)C(=O)NCC4)c2nc1NC(C)(C)C` [Example 348, 2-(3-(tert-butylamino)-2-methyl-5-quinoxalinyl)-3-chloro-1,5,6,7-tetrahydro-4H-pyrrolo[3,2-c]pyridin-4-one], the pIC50 in the experiment on KMS-12-BM cell lines is 6.72.
As for `Cc1nc2cccc(-c3cc4c([nH]3)[C@@H](C)NC4=O)c2nc1NCC(F)F` [Example 382, (R)-2-(3-((2,2-difluoroethyl)amino)-2-methylquinoxalin-5-yl)-6-methyl-5,6-dihydropyrrolo[3,4-b]pyrrol-4(1H)-one], in the experiment on KMS-12-BM cell lines, the pIC50 is 7.08.
Still for that read-out and setting: then `Cc1nc2cccc(-c3cc4c([nH]3)[C@H](C)NC4=O)c2nc1NCC(F)F` [Example 383, (S)-2-(3-((2,2-difluoroethyl)amino)-2-methylquinoxalin-5-yl)-6-methyl-5,6-dihydropyrrolo[3,4-b]pyrrol-4(1H)-one], with 6.35; and `C[C@H]1NC(=O)c2cc(-c3c(F)ccc4c(=O)n(C)c(NC(C)(C)C)nc34)[nH]c21` [Example 405, 2-(tert-butylamino)-7-fluoro-3-methyl-8-((6R)-6-methyl-4-oxo-1,4,5,6-tetrahydropyrrolo[3,4-b]pyrrol-2-yl)-4(3H)-quinazolinone], with 7.55; and `CC(C)n1c(NC(C)(C)C)nc2c(-c3cc4c([nH]3)[C@@H](C)NC4=O)cccc2c1=O` [Example 406, 2-(tert-butylamino)-3-(1-methylethyl)-8-((6R)-6-methyl-4-oxo-1,4,5,6-tetrahydropyrrolo[3,4-b]pyrrol-2-yl)-4(3H)-quinazolinone], with 7.52.
Take `CC[C@H]1NC(=O)c2cc(-c3cccc4c(=O)n(C)c(NC(C)(C)C)nc34)[nH]c21` [Example 505, (R)-2-(tert-butylamino)-8-(6-ethyl-4-oxo-1,4,5,6-tetrahydropyrrolo[3,4-b]pyrrol-2-yl)-3-methylquinazolin-4(3H)-one]: the pIC50 on Pim-2 and at Pim-1 was 9.10 throughout.
Regarding `C[C@H]1NC(=O)c2cc(-c3cccc4c(=O)n(C5CCC5)c(NC(C)(C)C)nc34)[nH]c21` [Example 507, (R)-2-(tert-Butylamino)-3-cyclobutyl-8-(6-methyl-4-oxo-1,4,5,6-tetrahydropyrrolo[3,4-b]pyrrol-2-yl)quinazolin-4(3H)-one], the pIC50 on Pim-2 was 9.22; on Pim-1 it was 9.52.
Consider `C[C@H]1NC(=O)c2cc(-c3cccc4c(=O)n(CCCS(C)(=O)=O)c(NC(C)(C)C)nc34)[nH]c21` [Example 508, (R)-2-(tert-butylamino)-8-(6-methyl-4-oxo-1,4,5,6-tetrahydropyrrolo[3,4-b]pyrrol-2-yl)-3-(3-(methylsulfonyl)propyl)quinazolin-4(3H)-one], for which the pIC50 at Pim-2 was 9.52; on Pim-1, 9.05.
Consider `CC[C@H]1NC(=O)c2cc(-c3cccc4c(=O)n(C5CC5)c(NC(C)(C)C)nc34)[nH]c21` [Example 511, (R)-2-(tert-butylamino)-3-cyclopropyl-8-(6-ethyl-4-oxo-1,4,5,6-tetrahydropyrrolo[3,4-b]pyrrol-2-yl)quinazolin-4(3H)-one], for which the negative logarithm of the IC50 (pIC50) at Pim-2 was 9.15; at Pim-1, 9.00.
For the compound `CCn1c(NC(C)(C)C)nc2c(-c3cc4c([nH]3)[C@@H](C)NC4=O)c(F)ccc2c1=O` [Example 512, (R)-2-(tert-Butylamino)-3-ethyl-7-fluoro-8-(6-methyl-4-oxo-1,4,5,6-tetrahydropyrrolo[3,4-b]pyrrol-2-yl)quinazolin-4(3H)-one], the figures for the pIC50 on Pim-2 and at Pim-1 were 10.13 and 10.54, respectively.
As to `CCn1c(NC2(C)CC2)nc2c(-c3cc4c([nH]3)[C@@H](C)NC4=O)c(F)ccc2c1=O` [Example 513, (R)-3-Ethyl-7-fluoro-8-(6-methyl-4-oxo-1,4,5,6-tetrahydropyrrolo[3,4-b]pyrrol-2-yl)-2-((1-methylcyclopropyl)amino)quinazolin-4(3H)-one], the negative-log IC50 (pIC50) on Pim-2 is 10.42; at Pim-1, 10.89.
As for `C[C@H]1NC(=O)c2cc(-c3cccc4c(=O)n(C5CCOCC5)c(NC(C)(C)C)nc34)[nH]c21` [Example 514, (R)-2-(tert-butylamino)-8-(6-methyl-4-oxo-1,4,5,6-tetrahydropyrrolo[3,4-b]pyrrol-2-yl)-3-(tetrahydro-2H-pyran-4-yl)quinazolin-4(3H)-one], the pIC50 at Pim-2 is 9.17; at Pim-1 it was 9.54.

As a reminder, the pIC50 is −log10 of the IC50, conventionally taken in molar units.
